In patent publication US20240225893A9, “SUSTAINED-RELEASE IMPLANTS FOR LOWERING INTRAOCULAR PRESSURE WITH EXTENDED DURATION OF EFFECT” (Allergan, Inc., priority 2017, published 2024):
Like-named read-outs stand apart in the source and are kept apart here.

Key:
[1] = Systemic pharmacokinetics after topical bimatoprost (study PK-98-119); assay type: in vivo; details: human; topical bimatoprost 0.03% QD
[2] = Systemic pharmacokinetics after topical bimatoprost (study 6177-110); assay type: in vivo; details: monkey, blood, LLOQ 0.100 ng/mL (AGN-191522)
[3] = human; topical bimatoprost 0.03% QD; cited from earlier work
[4] = Aqueous humor pharmacokinetics after topical bimatoprost (study PK10130); assay type: in vivo; details: dog; topical bimatoprost 0.03% QD; LLOQ 0.200 ng/mL (AGN-192024)
[5] = Systemic pharmacokinetics after intracameral Bimatoprost SR Gen 1 (study TX09051); assay type: in vivo; details: monkey; intracameral 30 μg (Gen 1)
[6] = Systemic pharmacokinetics after intracameral Bimatoprost SR (study TX12102); assay type: in vivo; details: dogs; intracameral Bimatoprost SR 10, 15 & 20 μg; blood; LLOQ 0.025 ng/mL (AGN-192024), 0.05 ng/mL (AGN-191522)
[7] = tested on: prostaglandin (PG) sensitive receptors; details: cited from earlier work
[8] = Ocular pharmacokinetics after topical bimatoprost (study PK-98-003); assay type: in vivo; details: monkey; topical bimatoprost 0.1% QD
[9] = Ocular pharmacokinetics after topical bimatoprost (study PK-97-032); assay type: in vivo; details: monkey; topical bimatoprost 0.1% BID
glaucoma patients = experiment: Phase 1/2 prospective 24-month paired-eye clinical trial of BimSR (Example 1); assay type: in vivo, human; details: month 24, topical bimatoprost solution 0.03% once a day
Procedure: A phase 1/2, prospective, 24-month, paired-eye clinical trial was conducted in 75 glaucoma patients with study eye baseline mean TOP of 25.2 (range 22-36) mmHg after washout. An intraocular implant having the composition as described in US Patent Publication No. 2015-0118279 as formulation 2, as described in TABLE 1 of the specification (6, 10, 15, or 20 μg dose strength) was administered intracamerally in the study eye; the fellow eye was treated with topical bimatoprost solution 0.03% once a day. Long-term TOP-lowering effect was assessed by TOP, time to additional TOP-lowering treatment, and percentage of patients without additional TOP-lowering treatment. Patients were permitted rescue topical medication or a single repeat treatment with BimSR. Results are presented for the 10 and 15 μg dose strengths of BimSR (n=21 for each) that are continuing in development.
Up to 4 and 6 months, 95.2% and 66.7% of patients, respectively, were controlled on the initial BimSR 10 or 15 μg treatment without need for rescue medication or implant retreatment. The median time to additional TOP-lowering treatment after BimSR administration was 38-39 weeks.
A single administration of BimSR 10 or 15 μg controlled TOP up to 6 months in 66.7% of patients and 23.8% of patients at 24 months.

Row | SMILES | Systemic Concentration [1] | Systemic Concentration ([2]; topical bimatoprost 0.03% QD) | Systemic Concentration ([2]; topical bimatoprost 0.1% BID) | Aqueous Humor Concentration [3] | Aqueous Humor Concentration [4] | Systemic Concentration [5] | Systemic Concentration [6] | interaction with prostaglandin (PG) sensitive receptors [7] | Aqueous Humor Concentration [8] | Tissues Concentration Cornea [8] | Tissues Concentration ICB [8] | Aqueous Humor Concentration [9] | Tissues Concentration Cornea [9] | Tissues Concentration ICB [9] | mean (SD) TOP (intraocular pressure) (glaucoma patients; fellow eyes of BimSR 10 μg group) | mean (SD) TOP (intraocular pressure) (glaucoma patients; fellow eyes of BimSR 15 μg group)
1 | O=C(O)CCC/C=C\C[C@@H]1[C@@H](/C=C/[C@@H](O)CCc2ccccc2)[C@H](O)C[C@@H]1O [AGN-191522, bimatoprost acid] | 2.41 ng/mL | BLQ^e | BLQ^e | 8.55 ng/mL | 2.0 ng/mL | 0.165 ng/mL | – | – | – | – | – | – | – | – | – | –
2 | CCNC(=O)CCC/C=C\C[C@@H]1[C@@H](/C=C/[C@@H](O)CCc2ccccc2)[C@H](O)C[C@@H]1O [AGN-192024, bimatoprost] | 0.0822 ng/mL | 0.397 ng/mL | 1.92 ng/mL | 2.37 ng/mL | BLQ^d | 0.280 ng/mL | BLQ^a | no meaningful interaction | 34.5 ng/mL | 558 ng/g | 797 ng/g | 13.0 ng/mL | 2890 ng/g | 1369 ng/g | 16.4 (2.1) mmHg | 15.4 (2.4) mmHg
